{"source": "patent US20080103201A1", "about": "“Novel alpha-Glucosidase inhibitor from Tabernaemontana dichotoma” (priority 2006, published 2008)", "key": {"[1]": {"test": "Post-prandial blood glucose concentration in rats", "assay_type": "in vivo"}, "[2]": {"molecular_target": "α-glucosidase (E.C.3.2.1.20)", "test": "α-Glucosidase enzyme inhibition assay (PNP-G substrate, spectrophotometric)", "assay_type": "biochemical", "protocol": "α-Glucosidase (E.C.3.2.1.20) enzyme inhibition assay was performed according to the slightly modified method of Matsui et al. α-glucosidase (E.C.3.2.1.20) from Saccharomyces species, purchased from Wako Pure Chemical Industries Ltd. (Wako 076-02841). The enzyme inhibition was measured spectrophotometrically at pH 6.9 and at 37° C. using 0.7 mM p-nitrophenyl-α-D-glucopyranoside (PNP-G) as a substrate and 500 m units/mL enzyme, in 50 mM sodium phosphate buffer containing 100 mM NaCl. […] The increment in absorption at 400 nm, due to the hydrolysis of PNP-G by α-glucosidase, was monitored continuously on microplate spectrophotometer (Spectra Max Molecular Devices, USA).) [T. Matsui, C. Yoshimoto, K. Osajima, T. Oki, and Y. Osajima. Biosci. Biotech. Biochem., 1996, 60, 2019]."}}, "data": [{"compound": "CC(=O)OC1CCC2(C)C(CCC3(C)C2CC=C2C4CC(C)(C)CCC4(C)CCC23C)C1(C)C", "note": "(stereo not drawn) [β-Amyrin acetate, 12-Oleanen-3-yl acetate]", "values": [{"measurement": "post-prandial blood glucose concentration", "setting": "[1]", "result": "reduced"}, {"measurement": "IC50", "setting": "[2]; pH 6.9, 37° C., 0.7 mM PNP-G substrate, 500 m units/mL enzyme", "result": "22.27 ± 0.112", "unit": "µM"}, {"measurement": "potency compared with Acarbose (times)", "setting": "[2]; α-glucosidase inhibition, relative to acarbose", "result": "approximately 35 times"}]}]}
